The compounds below were run against one or more of HDAC-4, HDAC-5, HDAC-6, HDAC-7, HDAC-8, HDAC-9, HDAC-10 and HDAC-11 (assay: Inhibition of histone deacetylase enzymatic activity (summary statement over isoforms)). Conditions: Table 3, selected examples; HDAC isoform not given.
Type: biochemical
Procedure: The following protocol is used to assay the compounds of the invention.
The mixture is pre-incubated for 5 minutes at room temperature. The reaction is started by bringing the temperature to 37° C. and adding 15 μL substrate. Total reaction volume is 50 μL.
A 30 mM stock of Boc-Lys(trifluoroacetyl)-AMC substrate is prepared in DMSO. […] Reaction is started by adding 18 μL Boc-Lys(trifluoroacetyl)-AMC substrate and incubating at 37° C. for 20-30 minutes. The reaction is stopped by adding 50 μL trypsin (1 mg/mL) and a known HDAC inhibitor.

IC50	Compound
< 1000 nM	O=C(NO)C(c1ccccc1)N1CCC(c2nc(-c3ccc4c(c3)OCO4)no2)CC1 (stereo not shown) [Compound 2-44, 2-(4-(3-(benzo[d][1,3]dioxol-5-yl)-1,2,4-oxadiazol-5-yl)piperidin-1-yl)-N-hydroxy-2-phenylacetamide]
1000 to 15000 nM	O=C(NO)C(Sc1ccc(C(F)(F)F)cn1)c1ccccc1 (stereo not shown) [Compound 2-47, N-hydroxy-2-phenyl-2-(5-(trifluoromethyl)pyridin-2-ylthio)acetamide]
< 1000 nM	O=C(NO)C(Sc1ccnc2cc(C(F)(F)F)ccc12)c1ccccc1 (stereo not shown) [Compound 2-49, N-hydroxy-2-phenyl-2-(7-(trifluoromethyl)quinolin-4-ylthio)acetamide]
< 1000 nM	O=C(NO)C(c1ccccc1)c1cccc(NCc2ccc(F)cc2)c1 (stereo not shown) [Compound 2-50, 2-(3-(4-fluorobenzylamino)phenyl)-N-hydroxy-2-phenylacetamide]
1000 to 15000 nM	CC(=O)Nc1cccc(C(C(=O)NO)c2ccccc2)c1 (stereo not shown) [Compound 2-52, 2-(3-acetamidophenyl)-N-hydroxy-2-phenylacetamide]
< 1000 nM	CC(C)CC(=O)Nc1ccc(C(C(=O)NO)c2ccccc2)cc1 (stereo not shown) [Compound 2-53, N-(4-(2-(hydroxyamino)-2-oxo-1-phenylethyl)phenyl)-3-methylbutanamide]
1000 to 15000 nM	O=C(Nc1cccc(C(C(=O)NO)c2ccccc2)c1)C1CCCCC1 (stereo not shown) [Compound 2-58, N-(3-(2-(hydroxyamino)-2-oxo-1-phenylethyl)phenyl)cyclohexanecarboxamide]

The next lines start with the compound.

Compound	IC50
O=C(NO)C(c1ccccc1)N1CCC(N2CCOCC2)CC1 (stereo not shown) [Compound 2-42, N-hydroxy-2-(4-morpholinopiperidin-1-yl)-2-phenylacetamide]	1000 to 15000 nM
O=C(NO)C(c1ccccc1)N1CCC(c2nc(-c3cccnc3)no2)CC1 (stereo not shown) [Compound 2-43, N-hydroxy-2-phenyl-2-(4-(3-(pyridin-3-yl)-1,2,4-oxadiazol-5-yl)piperidin-1-yl)acetamide]	< 1000 nM
O=C(NO)C(Sc1ccncc1)c1ccccc1 (stereo not shown) [Compound 2-45, N-hydroxy-2-phenyl-2-(pyridin-4-ylthio)acetamide]	1000 to 15000 nM
Cc1occc1SC(C(=O)NO)c1ccccc1 (stereo not shown) [Compound 2-46, N-hydroxy-2-(2-methylfuran-3-ylthio)-2-phenylacetamide]	1000 to 15000 nM
O=C(NO)C(Sc1nccc(-c2cccs2)n1)c1ccccc1 (stereo not shown) [Compound 2-48, N-hydroxy-2-phenyl-2-(4-(thiophen-2-yl)pyrimidin-2-ylthio)acetamide]	1000 to 15000 nM
O=C(NO)C(c1ccccc1)c1ccc(NCc2ccc(F)cc2)cc1 (stereo not shown) [Compound 2-51, 2-(4-(4-fluorobenzylamino)phenyl)-N-hydroxy-2-phenylacetamide]	< 1000 nM
CC(C)CC(=O)Nc1cccc(C(C(=O)NO)c2ccccc2)c1 (stereo not shown) [Compound 2-54, N-(3-(2-(hydroxyamino)-2-oxo-1-phenylethyl)phenyl)-3-methylbutanamide]	1000 to 15000 nM
O=C(Nc1ccc(C(C(=O)NO)c2ccccc2)cc1)c1ccccc1 (stereo not shown) [Compound 2-55, N-(4-(2-(hydroxyamino)-2-oxo-1-phenylethyl)phenyl)benzamide]	< 1000 nM
O=C(Nc1cccc(C(C(=O)NO)c2ccccc2)c1)c1ccccc1 (stereo not shown) [Compound 2-56, N-(3-(2-(hydroxyamino)-2-oxo-1-phenylethyl)phenyl)benzamide]	1000 to 15000 nM
O=C(Nc1ccc(C(C(=O)NO)c2ccccc2)cc1)C1CCCCC1 (stereo not shown) [Compound 2-57, N-(4-(2-(hydroxyamino)-2-oxo-1-phenylethyl)phenyl)cyclohexanecarboxamide]	< 1000 nM
O=C(Cc1ccccc1)Nc1ccc(C(C(=O)NO)c2ccccc2)cc1 (stereo not shown) [Compound 2-59, N-hydroxy-2-phenyl-2-(4-(2-phenylacetamido)phenyl)acetamide]	< 1000 nM
O=C(Cc1ccccc1)Nc1cccc(C(C(=O)NO)c2ccccc2)c1 (stereo not shown) [Compound 2-60, N-hydroxy-2-phenyl-2-(3-(2-phenylacetamido)phenyl)acetamide]	< 1000 nM

Reference: patent US9096565B2, “Inhibitors of histone deacetylase” (MethylGene Inc., priority 2007, dated 2015)
